This assay has as its target T1, IDO1 (Homo sapiens, UniProt P14902).
T1 construct: HeLa cells were treated with a test compound in the presence of IFNγ, which induces IDO1 expression; host or cells: H1-HeLa cells, IDO1 induced with IFNγ
As to the kind of experiment: Cell-based (HeLa) assay for measurement of IDO1 inhibition (kynurenine levels in supernatant). The following applies: H1-HeLa cells, IDO1 induced with IFNγ, 48 hour incubation, kynurenine read by absorbance at 480 nm; geometric mean of a minimum of four determinations. How it is done:
Example B-1. Cell-Based (HeLa) Assay for Measurement of IDO1 Inhibition
To measure IDO1 inhibition in tissue culture, HeLa cells were treated with a test compound in the presence of IFNγ, which induces IDO1 expression. Following incubation, cell supernatants were assayed for kynurenine levels, an indicator of IDO1 activity.
The following day, the test compounds were added in DMSO (0.5% final) at various concentrations, and IDO1 was inducibly expressed by the addition of 50 uL/well of 50 ng/mL of INFγ (Peprotech #300-02) in cell plating media. As a positive control, 50 uL of the cell plating media without IFNγ was added to several wells. Following a 48 hour incubation, the plates were spun down at 1,200 RPM for 5 min at 10° C. 65 μL/well of the supernatant was then transferred to new 384-well plates (Thermo #262160) that contained 10 uL/well of 30% TCA (Sigma # TO699), and the plates were sealed and incubated at 60° C. for 30 min. The plates were then centrifuged for 15 min at 2,000 RPM at 10° C. 40 μL/well of the supernatant was transferred to new 384-well plates (Thermo #262160) and was reacted with 40 μL/well of 2% (w/v) p-dimethlyaminobenzaldehyde (Sigma #156417) in glacial acetic acid (Sigma #A6283). The reaction was incubated at room temperature for 10 min and absorbance at 480 nm was read using a PerkinElmer Envision plate reader.
Data in Table 1 were normalized based on positive (−IFNγ) and negative (+IFNγ) controls and EC50 values were calculated from the fit of the dose—response curves to a four-parameter equation. All EC50 values represent geometric mean values of a minimum of four determinations. These assays generally produced results within 2-fold of the reported mean
T1 sequence (P14902 whole entry): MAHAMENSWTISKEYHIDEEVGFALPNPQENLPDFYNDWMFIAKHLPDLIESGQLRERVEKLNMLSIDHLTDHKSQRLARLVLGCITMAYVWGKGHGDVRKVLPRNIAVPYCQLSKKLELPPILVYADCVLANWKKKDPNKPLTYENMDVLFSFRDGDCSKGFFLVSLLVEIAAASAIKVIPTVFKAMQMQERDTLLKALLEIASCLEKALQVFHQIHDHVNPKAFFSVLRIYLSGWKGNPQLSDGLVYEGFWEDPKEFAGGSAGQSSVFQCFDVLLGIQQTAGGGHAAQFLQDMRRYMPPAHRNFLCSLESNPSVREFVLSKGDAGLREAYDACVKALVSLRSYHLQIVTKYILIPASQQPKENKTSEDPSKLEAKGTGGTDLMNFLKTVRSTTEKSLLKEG
With `CC1(C)C(=O)N(c2ncccn2)c2cccc(-c3ccc(C(F)(F)F)c(C(=O)Nc4ccncc4)c3)c21` [Example 26, 5-(3,3-dimethyl-2-oxo-1-(pyrimidin-2-yl)indolin-4-yl)-N-(pyridin-4-yl)-2-(trifluoromethyl)benzamide], the concentration giving a half-maximal response (EC50) (commonly the concentration at which the effect is half-maximal) worked out at 44 nM.

In turn, `CC1(C)C(=O)N(c2ccncn2)c2cccc(-c3cnc(C(F)(F)F)c(C(=O)Nc4ccc(F)c(F)c4)c3)c21` [Example 51, N-(3,4-difluorophenyl)-5-(3,3-dimethyl-2-oxo-1-(pyrimidin-4-yl)indolin-4-yl)-2-(trifluoromethyl)nicotinamide] had an EC50 of 41 nM.

The compound `CC1(C)C(=O)N(c2cc[nH]n2)c2cccc(-c3ccc(C(F)(F)F)c(C(=O)Nc4ccc(F)cc4)c3)c21` [Example 5, 5-(3,3-dimethyl-2-oxo-1-(1H-pyrazol-3-yl)indolin-4-yl)-N-(4-fluorophenyl)-2-(trifluoromethyl)benzamide] yielded an EC50 of 13 nM.

`CC1(C)C(=O)N(c2cccnc2)c2cccc(-c3ccc(C(F)(F)F)c(-c4nc5cc(F)ccc5[nH]4)c3)c21` [Example 56, 4-(3-(5-fluoro-1H-benzo[d]imidazol-2-yl)-4-(trifluoromethyl)phenyl)-3,3-dimethyl-1-(pyridin-3-yl)indolin-2-one]: it took 3030 nM to reach a half-maximal effect (EC50).

`CC1(C)C(=O)N(c2cccnc2)c2cccc(-c3ccc(C(F)(F)F)c(C(=O)Nc4ccc(F)cc4)c3)c21` [Example 7, 5-(3,3-dimethyl-2-oxo-1-(pyridin-3-yl)indolin-4-yl)-N-(4-fluorophenyl)-2-(trifluoromethyl)benzamide] showed an EC50 of 19 nM.

The compound `Cc1ncc(-c2cccc3c2C(C)(C)C(=O)N3c2cccnc2)cc1C(=O)Nc1ccc(F)cc1` [Example 13, 5-(3,3-dimethyl-2-oxo-1-(pyridin-3-yl)indolin-4-yl)-N-(4-fluorophenyl)-2-methylnicotinamide] displayed an EC50 of 94 nM.

(Values after patent US11098027B2, “Therapeutic heterocyclic compounds” (Gilead Sciences, Inc., priority 2018, dated 2021).)
